The source of these data is ChEMBL document CHEMBL1201862, “PubChem BioAssay data set” (2004).

Experiment [1] deals with Serine/threonine-protein phosphatase PP1-alpha catalytic subunit (Homo sapiens, UniProt P62136). Nature of the experiment: PP1 phosphatase inhibitors, dose response, biochemical, fluorescence (AID 2394).
Experiment [2] has as its target T1, Sentrin-specific protease 8 (Homo sapiens, UniProt Q96LD8).
T1 sequence (Q96LD8 whole entry): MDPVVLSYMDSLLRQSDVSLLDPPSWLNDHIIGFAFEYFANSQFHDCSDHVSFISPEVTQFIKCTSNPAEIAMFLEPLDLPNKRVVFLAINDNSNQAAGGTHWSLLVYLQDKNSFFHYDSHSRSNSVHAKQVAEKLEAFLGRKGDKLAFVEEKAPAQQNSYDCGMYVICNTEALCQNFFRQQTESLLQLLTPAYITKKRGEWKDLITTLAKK
The class given is functional.

For experiment [3], the target named is Serine/threonine-protein phosphatase (Homo sapiens, UniProt Q9BPW0). Nature of the experiment: PP5 phosphatase inhibitors, dose response, biochemical, fluorescence (AID 2395).
The subject of experiment [4] is Streptococcus sp. 'group A'. Nature of the experiment: growth inhibition of control SK(-) GAS strain, dose response, counter-screen for streptokinase expression inhibitor project, luminescence, kanamycin, BacTiterGlo, confirmation (AID 1900). In kind it is functional, organism-based. (In general: A counterscreen serves to expose hits that act by an unwanted route or on another target.)

Experiment [5] is described as follows: Luminescence Cell-Based Dose Response HTS to Identify Inhibitors of 5'UTR Stem-Loop Driven Prion Protein mRNA Translation in H4 Neuroglioblastoma Cells. [Related pubchem assays: 1827 (Project Summary), 1813 (Primary HTS)]. The class given is functional.
The test system of experiment [6] is INS1. Nature of the experiment: beta cell apoptosis inhibitors, cytokine rescue, dose response, luminescence, retest (AID 449756).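 Also: cell death triggered by IL-1 beta plus TNF-alpha plus IFN-gamma mixture; protective hits raise ATP signal compared with cytokine alone wells.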 The class given is functional, cell-based. Particulars: Rattus norvegicus.
For experiment [7], the system named is Streptococcus. The experiment in a line: Group A Streptococcus viability loss, dose response, counter-screen for streptokinase expression inhibitor project, luminescence, BacTiterGlo (AID 1915).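 Also: potency for reduction of bacterial viability or growth.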 In kind it is functional, organism-based.
The target of experiment [8] is T2, Heat shock factor protein 1 (Mus musculus, UniProt P38532).
T2 sequence (P38532 whole entry): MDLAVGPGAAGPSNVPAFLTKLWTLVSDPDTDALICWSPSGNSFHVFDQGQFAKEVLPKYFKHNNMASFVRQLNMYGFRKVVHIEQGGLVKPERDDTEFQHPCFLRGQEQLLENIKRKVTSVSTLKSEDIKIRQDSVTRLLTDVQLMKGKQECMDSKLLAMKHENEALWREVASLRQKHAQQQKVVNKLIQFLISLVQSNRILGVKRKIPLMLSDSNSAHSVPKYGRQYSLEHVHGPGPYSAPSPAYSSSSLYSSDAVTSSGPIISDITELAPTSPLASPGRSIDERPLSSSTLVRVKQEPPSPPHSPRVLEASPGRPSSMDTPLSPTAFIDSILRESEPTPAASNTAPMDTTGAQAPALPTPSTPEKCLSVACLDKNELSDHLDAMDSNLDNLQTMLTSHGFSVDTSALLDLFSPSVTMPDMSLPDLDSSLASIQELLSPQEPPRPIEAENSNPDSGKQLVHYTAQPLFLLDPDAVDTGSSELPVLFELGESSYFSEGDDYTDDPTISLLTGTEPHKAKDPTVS
Nature of the experiment: HSF1 potentiators in luciferase reporter cells, confirmation, cell-based, NIH3T3, luminescence, dose retest (AID 435004).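 Also: stress induced by proteasome inhibitor MG132 added 30 min after compound; luciferase reporter driven by HSF1 response element in NIH3T3 cells; actives raise luminescence as potentiators of the MG132 stress response.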 The class given is functional.

For experiment [9], the target named is Dual specificity tyrosine-phosphorylation-regulated kinase 1A (Rattus norvegicus, UniProt Q63470). The class given is biochemical, Homo sapiens.
The target of experiment [10] is Genome polyprotein (dengue virus type 2, UniProt P29990). The experiment in a line: Dengue-2 NS5 methyltransferase inhibitors, primary screen, biochemical, confirmation dose response (AID 588689). In kind it is functional.
The target in experiment [11] is SUMO-activating enzyme (Homo sapiens, UniProt Q9UBT2). The experiment in a line: SUMOylation inhibitor hit validation, confirmation, SUMOylation inhibitor project, biochemical, AlphaScreen (AID 2018). In kind it is functional. (In Alpha technology, singlet oxygen from a donor bead excites a nearby acceptor bead.)
The target in experiment [12] is T3, Hexokinase HKDC1 (Homo sapiens, UniProt Q2TB90).
T3 sequence (Q2TB90 whole entry): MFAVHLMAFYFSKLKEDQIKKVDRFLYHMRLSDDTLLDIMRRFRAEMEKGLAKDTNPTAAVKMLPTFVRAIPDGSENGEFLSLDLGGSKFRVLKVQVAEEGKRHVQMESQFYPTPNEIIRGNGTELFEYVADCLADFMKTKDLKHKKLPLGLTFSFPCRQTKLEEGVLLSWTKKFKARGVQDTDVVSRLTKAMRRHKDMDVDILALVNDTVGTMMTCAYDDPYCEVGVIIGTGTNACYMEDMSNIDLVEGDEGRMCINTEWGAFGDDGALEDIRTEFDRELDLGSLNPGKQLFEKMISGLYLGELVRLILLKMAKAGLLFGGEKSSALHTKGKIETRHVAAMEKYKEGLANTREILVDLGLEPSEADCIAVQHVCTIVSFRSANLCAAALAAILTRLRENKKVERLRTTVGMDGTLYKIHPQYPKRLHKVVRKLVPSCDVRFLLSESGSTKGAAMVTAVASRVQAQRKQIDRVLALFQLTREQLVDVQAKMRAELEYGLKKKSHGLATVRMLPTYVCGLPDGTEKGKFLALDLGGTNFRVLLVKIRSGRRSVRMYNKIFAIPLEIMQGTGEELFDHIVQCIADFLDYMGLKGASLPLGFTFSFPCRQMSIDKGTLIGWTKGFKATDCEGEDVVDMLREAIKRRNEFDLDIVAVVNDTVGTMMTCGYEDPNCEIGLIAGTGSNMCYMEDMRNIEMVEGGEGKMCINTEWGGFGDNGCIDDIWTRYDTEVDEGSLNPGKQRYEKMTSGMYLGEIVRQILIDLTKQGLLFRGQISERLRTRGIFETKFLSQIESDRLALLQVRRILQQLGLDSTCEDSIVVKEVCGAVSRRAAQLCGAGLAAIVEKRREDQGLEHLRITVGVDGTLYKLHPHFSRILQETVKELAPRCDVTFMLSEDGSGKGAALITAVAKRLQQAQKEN
Nature of the experiment: HKDC1 hexokinase inhibitors, dose response, biochemical, W721R variant (AID 504729). In kind it is functional.

For orientation: IC50 means the concentration that inhibits the measured activity by half. Broadly, the EC50 is the concentration giving half of the maximal effect. By AC50 is commonly meant the concentration giving half of the maximal activity seen.

Active and inactive are the calls of the source.

Serine/threonine-protein phosphatase, sequence (Q9BPW0 whole entry): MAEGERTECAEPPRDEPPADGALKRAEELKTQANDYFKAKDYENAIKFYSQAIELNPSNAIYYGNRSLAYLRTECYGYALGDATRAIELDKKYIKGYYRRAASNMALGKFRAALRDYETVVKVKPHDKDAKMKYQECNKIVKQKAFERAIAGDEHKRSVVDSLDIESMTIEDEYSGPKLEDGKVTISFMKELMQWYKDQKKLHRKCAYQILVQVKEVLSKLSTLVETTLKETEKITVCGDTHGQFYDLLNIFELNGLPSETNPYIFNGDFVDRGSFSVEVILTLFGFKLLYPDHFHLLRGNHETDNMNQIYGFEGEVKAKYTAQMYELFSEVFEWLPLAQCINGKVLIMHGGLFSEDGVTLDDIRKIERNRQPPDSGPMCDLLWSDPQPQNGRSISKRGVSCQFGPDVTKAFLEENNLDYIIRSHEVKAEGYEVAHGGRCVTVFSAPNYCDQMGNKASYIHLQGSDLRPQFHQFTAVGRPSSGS
SUMO-activating enzyme, sequence (Q9UBE0 whole entry): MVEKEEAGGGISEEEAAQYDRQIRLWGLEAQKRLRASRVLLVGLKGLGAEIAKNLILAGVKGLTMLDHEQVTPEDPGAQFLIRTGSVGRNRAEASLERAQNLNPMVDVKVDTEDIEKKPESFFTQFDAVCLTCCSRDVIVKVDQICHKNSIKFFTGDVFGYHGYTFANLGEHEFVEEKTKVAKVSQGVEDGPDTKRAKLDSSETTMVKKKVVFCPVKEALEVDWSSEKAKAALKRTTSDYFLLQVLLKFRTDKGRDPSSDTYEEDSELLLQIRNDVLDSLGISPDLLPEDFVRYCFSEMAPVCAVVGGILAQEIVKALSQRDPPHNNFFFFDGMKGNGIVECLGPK
SUMO-activating enzyme, sequence (Q9UBT2 whole entry): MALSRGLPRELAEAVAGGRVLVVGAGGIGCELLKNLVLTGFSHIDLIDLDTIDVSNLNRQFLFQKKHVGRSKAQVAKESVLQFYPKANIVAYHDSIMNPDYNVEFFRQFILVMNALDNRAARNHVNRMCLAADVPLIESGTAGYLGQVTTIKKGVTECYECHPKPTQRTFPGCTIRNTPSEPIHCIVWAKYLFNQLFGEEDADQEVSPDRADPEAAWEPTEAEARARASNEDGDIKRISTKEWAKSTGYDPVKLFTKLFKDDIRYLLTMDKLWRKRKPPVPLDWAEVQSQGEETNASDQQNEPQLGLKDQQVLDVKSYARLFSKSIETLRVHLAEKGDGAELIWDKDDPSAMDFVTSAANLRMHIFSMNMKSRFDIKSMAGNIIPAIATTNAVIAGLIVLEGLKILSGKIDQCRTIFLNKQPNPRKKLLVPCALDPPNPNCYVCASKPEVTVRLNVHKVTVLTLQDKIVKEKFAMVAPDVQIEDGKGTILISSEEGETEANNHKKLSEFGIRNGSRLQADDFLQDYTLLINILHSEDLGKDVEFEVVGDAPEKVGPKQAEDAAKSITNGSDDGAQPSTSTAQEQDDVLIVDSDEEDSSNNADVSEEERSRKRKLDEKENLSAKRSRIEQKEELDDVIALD
Serine/threonine-protein phosphatase PP1-alpha catalytic subunit, sequence (P62136 whole entry): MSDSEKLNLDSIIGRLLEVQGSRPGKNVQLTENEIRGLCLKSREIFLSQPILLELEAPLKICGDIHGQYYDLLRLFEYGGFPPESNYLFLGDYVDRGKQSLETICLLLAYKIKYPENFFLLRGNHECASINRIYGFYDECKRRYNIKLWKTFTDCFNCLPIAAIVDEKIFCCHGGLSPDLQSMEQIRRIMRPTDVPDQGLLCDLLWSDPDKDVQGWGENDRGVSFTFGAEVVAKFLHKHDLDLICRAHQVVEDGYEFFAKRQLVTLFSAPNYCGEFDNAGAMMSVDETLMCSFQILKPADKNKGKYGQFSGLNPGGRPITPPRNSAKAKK
Genome polyprotein, sequence (P29990 2492-3391 limits assumed): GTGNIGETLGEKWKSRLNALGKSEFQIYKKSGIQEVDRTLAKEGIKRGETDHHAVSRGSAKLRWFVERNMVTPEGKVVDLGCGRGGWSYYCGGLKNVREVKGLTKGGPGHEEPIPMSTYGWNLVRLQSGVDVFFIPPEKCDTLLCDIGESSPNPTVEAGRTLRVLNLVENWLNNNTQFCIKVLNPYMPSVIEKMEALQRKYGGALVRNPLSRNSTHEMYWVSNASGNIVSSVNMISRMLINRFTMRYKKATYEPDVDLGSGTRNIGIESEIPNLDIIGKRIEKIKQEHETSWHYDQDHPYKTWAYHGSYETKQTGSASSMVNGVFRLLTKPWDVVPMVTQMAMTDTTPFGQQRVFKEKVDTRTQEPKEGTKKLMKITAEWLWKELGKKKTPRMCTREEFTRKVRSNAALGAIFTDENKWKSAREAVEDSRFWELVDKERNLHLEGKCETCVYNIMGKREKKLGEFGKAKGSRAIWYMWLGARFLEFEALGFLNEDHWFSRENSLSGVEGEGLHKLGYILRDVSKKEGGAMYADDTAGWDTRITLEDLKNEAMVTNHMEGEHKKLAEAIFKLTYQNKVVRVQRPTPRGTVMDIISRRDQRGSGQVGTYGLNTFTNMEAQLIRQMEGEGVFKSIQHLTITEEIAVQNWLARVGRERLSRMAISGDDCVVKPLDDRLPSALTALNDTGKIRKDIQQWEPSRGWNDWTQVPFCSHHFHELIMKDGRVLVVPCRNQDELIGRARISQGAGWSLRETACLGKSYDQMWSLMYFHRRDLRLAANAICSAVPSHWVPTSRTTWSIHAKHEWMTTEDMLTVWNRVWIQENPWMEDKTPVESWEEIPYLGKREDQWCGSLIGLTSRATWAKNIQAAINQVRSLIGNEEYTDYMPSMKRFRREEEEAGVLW

Consider `COc1ccc(NC(=S)Nc2ccc3nsnc3c2)cc1`, for which the figures for the IC50 in experiment [1], in experiment [2] and in [3] were > 67 µM (not active), 6.61 µM (active) and > 2.48 µM (active), respectively.
On to `CC(C)(C)c1cc[n+](C2=C([N-]S(=O)(=O)c3ccccc3)C(=O)c3ccccc3C2=O)cc1`, for which the EC50 in experiment [4] was 4.89 µM (active); in experiment [5], 25 µM (active); in experiment [7] it was 5.15 µM (active). Also, the AC50 in experiment [6] is 14.5 µM (active).
Take `O=C1C=C(Nc2ccccc2C(=O)O)c2ccccc2C1=O`: in [8], the EC50 is 133 µM (active). Also, in experiment [9], the AC50 is 6.25 µM (active). Moreover, the values for the IC50 in [10], in experiment [11] and in experiment [12] were > 100 µM (active), 1.9 µM (active) and 12.4 µM (active), respectively.
